Results published in patent US9963442B2, “Pyridones as herbicides” (E I DU PONT DE NEMOURS AND COMPANY, priority 2014, dated 2018).

Assays:
Type in all cases: in vivo
[1] = test system: ducksalad (Heteranthera limosa); experiment: Test B flooded paddy test; design: key: 0 = no effect, 100 = complete control; details: Flood, 250 g ai/ha applied to paddy water at 2-leaf stage; visually evaluated after 13 to 15 days; scale 0 (no effect) to 100 (complete control)
Summary of the method: (§1)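 First, plants reach the 2-leaf stage; next, pots are flooded to 3 cm and compound is delivered into the water; finally, after 13 to 15 greenhouse days at constant depth, injury is graded visually from 0 to 100 against controls.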

[2] = test system: barnyardgrass (Echinochloa crus-galli); experiment: Test B flooded paddy test; design: key: 0 = no effect, 100 = complete control; details: Flood, 250 g ai/ha applied to paddy water at 2-leaf stage; visually evaluated after 13 to 15 days; scale 0 (no effect) to 100 (complete control)
Summary of the method: as §1

[3] = test system: sedge, umbrella (small-flower umbrella sedge, Cyperus difformis); experiment: Test B flooded paddy test; design: key: 0 = no effect, 100 = complete control; details: Flood, 250 g ai/ha applied to paddy water at 2-leaf stage; visually evaluated after 13 to 15 days; scale 0 (no effect) to 100 (complete control)
Summary of the method: as §1

rice (Oryza sativa) = experiment: Test B flooded paddy test; design: key: 0 = no effect, 100 = complete control; details: Flood, 250 g ai/ha applied to paddy water at 2-leaf stage; visually evaluated after 13 to 15 days; scale 0 (no effect) to 100 (complete control)
Summary of the method: as §1

[4] = test system: large (Lg) crabgrass (Digitaria sanguinalis); experiment: Test C preemergence; details: scale 0 to 100, 0 is no effect, 100 is complete control
Excerpt: (§2) Seeds of plant species selected from blackgrass (Alopecurus myosuroides), Italian ryegrass (Lolium multiflorum), winter wheat (Triticum aestivum), galium (catchweed bedstraw, Galium aparine), corn (Zea mays), large (Lg) crabgrass (Digitaria sanguinalis), giant foxtail (Setaria faberii), johnsongrass (Sorghum halepense), lambsquarters (Chenopodium album), morningglory (Ipomoea coccinea), yellow nutsedge (Cyperus esculentus), pigweed (Amaranthus retroflexus), ragweed (common ragweed, Ambrosia elatior), soybean (Glycine max), barnyardgrass (Echinochloa crus-galli), oilseed rape (Brassica napus), waterhemp (common waterhemp, Amaranthus rudis), and velvetleaf (Abutilon theophrasti) were planted into a blend of loam soil and sand and treated preemergence with test chemicals formulated in a non-phytotoxic solvent mixture which included a surfactant. At the same time, plants selected from these crop and weed species and also chickweed (common chickweed, Stellaria media), kochia (Kochia scoparia), and wild oat (Avena fatua), were planted in pots containing Sunshine Redi-Earth® planting medium comprising spaghnum peat moss, vermiculite, starter nutrients and dolomitic limestone and treated with postemergence applications of test chemicals formulated in the same manner. Plants ranged in height from 2 to 18 cm (1- to 4-leaf stage) for postemergence treatments. Treated plants and controls were maintained in a greenhouse for 13 to 15 days, after which time all species were compared to controls and visually evaluated. Plant response ratings, summarized in Table C, are based on a scale of 0 to 100 where 0 is no effect and 100 is complete control. A dash (-) response means no test result.

[5] = test system: ragweed (common ragweed, Ambrosia elatior); experiment: Test C preemergence; details: scale 0 to 100, 0 is no effect, 100 is complete control
Excerpt: as §2

[6] = test system: waterhemp (common waterhemp, Amaranthus rudis); experiment: Test C preemergence; details: scale 0 to 100, 0 is no effect, 100 is complete control
Excerpt: as §2

[7] = test system: Italian ryegrass (Lolium multiflorum); experiment: Test C preemergence; details: scale 0 to 100, 0 is no effect, 100 is complete control
Excerpt: as §2

[8] = test system: pigweed (Amaranthus retroflexus); experiment: Test C preemergence; details: scale 0 to 100, 0 is no effect, 100 is complete control
Excerpt: as §2

[9] = test system: winter wheat (Triticum aestivum); experiment: Test C preemergence; details: scale 0 to 100, 0 is no effect, 100 is complete control
Excerpt: as §2

[10] = test system: velvetleaf (Abutilon theophrasti); experiment: Test C preemergence; details: scale 0 to 100, 0 is no effect, 100 is complete control
Excerpt: as §2

[11] = test system: morningglory (Ipomoea coccinea); experiment: Test C preemergence; details: scale 0 to 100, 0 is no effect, 100 is complete control
Excerpt: as §2

[12] = test system: blackgrass (Alopecurus myosuroides); experiment: Test C preemergence; details: scale 0 to 100, 0 is no effect, 100 is complete control
Excerpt: as §2

corn (Zea mays) = experiment: Test C preemergence; details: scale 0 to 100, 0 is no effect, 100 is complete control
Excerpt: as §2

[13] = test system: giant foxtail (Setaria faberii); experiment: Test C preemergence; details: scale 0 to 100, 0 is no effect, 100 is complete control
Excerpt: as §2

[14] = test system: barnyardgrass (Echinochloa crus-galli); experiment: Test C preemergence; details: scale 0 to 100, 0 is no effect, 100 is complete control
Excerpt: as §2

[15] = test system: galium (catchweed bedstraw, Galium aparine); experiment: Test C preemergence; details: scale 0 to 100, 0 is no effect, 100 is complete control
Excerpt: as §2

[16] = test system: lambsquarters (Chenopodium album); experiment: Test C preemergence; details: scale 0 to 100, 0 is no effect, 100 is complete control
Excerpt: as §2

[17] = test system: oilseed rape (Brassica napus); experiment: Test C preemergence; details: scale 0 to 100, 0 is no effect, 100 is complete control
Excerpt: as §2

[18] = test system: yellow nutsedge (Cyperus esculentus); experiment: Test C preemergence; details: scale 0 to 100, 0 is no effect, 100 is complete control
Excerpt: as §2

O=c1cccc(Oc2ncc(Cl)cn2)n1-c1ccc(C(F)(F)F)cn1 [Compound 7]
Plant response rating, Ducksalad [1]: 100 | Plant response rating, Barnyardgrass [2]: 0 | Plant response rating, Sedge, Umbrella [3]: 90 | Plant response rating, Rice (rice (Oryza sativa)): 0 | Plant response rating, Crabgrass, Large ([4]; 16 g ai/ha): 5 | Plant response rating, Crabgrass, Large ([4]; 31 g ai/ha): 60 | Plant response rating, Crabgrass, Large ([4]; 62 g ai/ha): 95 | Plant response rating, Crabgrass, Large ([4]; 125 g ai/ha): 100 | Plant response rating, Ragweed ([5]; 16 g ai/ha): 35 | Plant response rating, Ragweed ([5]; 31 g ai/ha): 45 | Plant response rating, Ragweed ([5]; 62 g ai/ha): 50 | Plant response rating, Ragweed ([5]; 125 g ai/ha): 40 | Plant response rating, Waterhemp ([6]; 16 g ai/ha): 85 | Plant response rating, Waterhemp ([6]; 31 g ai/ha): 85 | Plant response rating, Waterhemp ([6]; 62 g ai/ha): 100 | Plant response rating, Waterhemp ([6]; 125 g ai/ha): 100 | Plant response rating, Ryegrass, Italian ([7]; 16 g ai/ha): 0 | Plant response rating, Ryegrass, Italian ([7]; 31 g ai/ha): 0 | Plant response rating, Ryegrass, Italian ([7]; 62 g ai/ha): 10 | Plant response rating, Ryegrass, Italian ([7]; 125 g ai/ha): 30 | Plant response rating, Pigweed ([8]; 16 g ai/ha): 20 | Plant response rating, Pigweed ([8]; 31 g ai/ha): 100 | Plant response rating, Pigweed ([8]; 62 g ai/ha): 100 | Plant response rating, Pigweed ([8]; 125 g ai/ha): 100 | Plant response rating, Wheat ([9]; 16 g ai/ha): 0 | Plant response rating, Wheat ([9]; 31 g ai/ha): 0 | Plant response rating, Wheat ([9]; 62 g ai/ha): 0 | Plant response rating, Wheat ([9]; 125 g ai/ha): 0 | Plant response rating, Velvetleaf ([10]; 16 g ai/ha): 5 | Plant response rating, Velvetleaf ([10]; 31 g ai/ha): 10 | Plant response rating, Velvetleaf ([10]; 62 g ai/ha): 35 | Plant response rating, Velvetleaf ([10]; 125 g ai/ha): 55 | Plant response rating, Morningglory ([11]; 16 g ai/ha): 0 | Plant response rating, Morningglory ([11]; 31 g ai/ha): 0 | Plant response rating, Morningglory ([11]; 62 g ai/ha): 10 | Plant response rating, Morningglory ([11]; 125 g ai/ha): 25 | Plant response rating, Blackgrass ([12]; 16 g ai/ha): 0 | Plant response rating, Blackgrass ([12]; 31 g ai/ha): 0 | Plant response rating, Blackgrass ([12]; 62 g ai/ha): 30 | Plant response rating, Blackgrass ([12]; 125 g ai/ha): 85 | Plant response rating, Corn (corn (Zea mays); 16 g ai/ha): 0 | Plant response rating, Corn (corn (Zea mays); 31 g ai/ha): 0 | Plant response rating, Corn (corn (Zea mays); 62 g ai/ha): 10 | Plant response rating, Corn (corn (Zea mays); 125 g ai/ha): 10 | Plant response rating, Foxtail, Giant ([13]; 16 g ai/ha): 25 | Plant response rating, Foxtail, Giant ([13]; 31 g ai/ha): 60 | Plant response rating, Foxtail, Giant ([13]; 62 g ai/ha): 85 | Plant response rating, Foxtail, Giant ([13]; 125 g ai/ha): 98 | Plant response rating, Barnyardgrass ([14]; 16 g ai/ha): 5 | Plant response rating, Barnyardgrass ([14]; 31 g ai/ha): 10 | Plant response rating, Barnyardgrass ([14]; 62 g ai/ha): 35 | Plant response rating, Barnyardgrass ([14]; 125 g ai/ha): 75 | Plant response rating, Galium ([15]; 16 g ai/ha): 0 | Plant response rating, Galium ([15]; 31 g ai/ha): 50 | Plant response rating, Galium ([15]; 62 g ai/ha): 98 | Plant response rating, Galium ([15]; 125 g ai/ha): 100 | Plant response rating, Lambsquarters ([16]; 16 g ai/ha): 15 | Plant response rating, Lambsquarters ([16]; 31 g ai/ha): 40 | Plant response rating, Lambsquarters ([16]; 62 g ai/ha): 75 | Plant response rating, Lambsquarters ([16]; 125 g ai/ha): 75 | Plant response rating, Oilseed Rape ([17]; 16 g ai/ha): 5 | Plant response rating, Oilseed Rape ([17]; 31 g ai/ha): 35 | Plant response rating, Oilseed Rape ([17]; 62 g ai/ha): 85 | Plant response rating, Oilseed Rape ([17]; 125 g ai/ha): 95 | Plant response rating, Nutsedge, Yellow ([18]; 16 g ai/ha): 0 | Plant response rating, Nutsedge, Yellow ([18]; 31 g ai/ha): 0 | Plant response rating, Nutsedge, Yellow ([18]; 62 g ai/ha): 0 | Plant response rating, Nutsedge, Yellow ([18]; 125 g ai/ha): 15
